Earlier results as cited in PubChem BioAssay AID1259409 (Chemical Carcinogenesis Research Information System (CCRIS), 2018).

System: rodent chemically induced tumor inhibition, incidence and multiplicity
Experiment: CCRIS tumor inhibitor studies
Conditions: Route [Inhibitor]: ORAL

SMILES	tumour outcome (control, treated, inhibition, significance) (Carcinogen: AZOXYMETHANE [25843-45-2], Dose [Inhibitor]: 200 PPM IN DIET FOR 4 WK BEGINNING 1 WK PRIOR TO FIRST CARCINOGEN DOSE (STUDY DURATION: 35 WK), Species: RAT, Strain/Sex: F344/MALE, Target Tissue: Type of Lesion: COLON: ADENOMA, Dose [Carcinogen]: 15 MG/KG BW 1X/WK FOR 3 WK (STUDY DURATION: 35 WK), Promoter: NONE)	tumour outcome (control, treated, inhibition, significance) (Carcinogen: AZOXYMETHANE [25843-45-2], Dose [Inhibitor]: 200 PPM IN DIET FOR 4 WK BEGINNING 1 WK PRIOR TO FIRST CARCINOGEN DOSE (STUDY DURATION: 35 WK), Species: RAT, Strain/Sex: F344/MALE, Target Tissue: Type of Lesion: COLON: CARCINOMA, Dose [Carcinogen]: 15 MG/KG BW 1X/WK FOR 3 WK (STUDY DURATION: 35 WK), Promoter: NONE)	tumour outcome (control, treated, inhibition, significance) (Carcinogen: AZOXYMETHANE [25843-45-2], Dose [Inhibitor]: 200 PPM IN DIET FOR 4 WK BEGINNING 1 WK PRIOR TO FIRST CARCINOGEN DOSE (STUDY DURATION: 35 WK), Species: RAT, Strain/Sex: F344/MALE, Target Tissue: Type of Lesion: SMALL INTESTINE: CARCINOMA, Dose [Carcinogen]: 15 MG/KG BW 1X/WK FOR 3 WK (STUDY DURATION: 35 WK), Promoter: NONE)	tumour outcome (control, treated, inhibition, significance) (Carcinogen: 1,2-DIMETHYLHYDRAZINE, 540-73-8, Dose [Inhibitor]: 0, 0.001% IN DRINKING WATER FOR 30 WK (STUDY DURATION: 30 WK), Species: MOUSE, Strain/Sex: ICR/FEMALE, Target Tissue: Type of Lesion: COLON: TUMOR, Dose [Carcinogen]: 10 MG/KG BW 1/WK FOR 15 WK, Promoter: NONE USED)	tumour outcome (control, treated, inhibition, significance) (Carcinogen: 1,2-DIMETHYLHYDRAZINE, 540-73-8, Dose [Inhibitor]: 0, 0.005% IN DRINKING WATER FOR 30 WK (STUDY DURATION: 30 WK), Species: MOUSE, Strain/Sex: ICR/FEMALE, Target Tissue: Type of Lesion: COLON: TUMOR, Dose [Carcinogen]: 10 MG/KG BW 1/WK FOR 15 WK, Promoter: NONE USED)	tumour outcome (control, treated, inhibition, significance) (Carcinogen: 1,2-DIMETHYLHYDRAZINE, 540-73-8, Dose [Inhibitor]: 0, 0.01% IN DRINKING WATER FOR 25 WK (STUDY DURATION: 25 WK), Species: MOUSE, Strain/Sex: ICR/FEMALE, Target Tissue: Type of Lesion: COLON: TUMOR, Dose [Carcinogen]: 10 MG/KG BW 1/WK FOR 15 WK, Promoter: NONE USED)	tumour outcome (control, treated, inhibition, significance) (Carcinogen: N-METHYL-N-NITROSOUREA, 684-93-5, Dose [Inhibitor]: 0, 1 PPM IN DRINKING WATER FOR 36 WK BEGINNING POST CARCINOGEN TREATMENT (STUDY DURATION: 40 WK), Species: RAT, Strain/Sex: F344/FEMALE, Target Tissue: Type of Lesion: COLON: ADENOCARCINOMA, Dose [Carcinogen]: 2 MG 3/WK FOR 3 WK, Promoter: NONE USED)	tumour outcome (control, treated, inhibition, significance) (Carcinogen: N-METHYL-N-NITROSOUREA, 684-93-5, Dose [Inhibitor]: 0, 5 PPM IN DRINKING WATER FOR 36 WK BEGINNING POST CARCINOGEN TREATMENT (STUDY DURATION: 40 WK), Species: RAT, Strain/Sex: F344/FEMALE, Target Tissue: Type of Lesion: COLON: ADENOCARCINOMA, Dose [Carcinogen]: 2 MG 3/WK FOR 3 WK, Promoter: NONE USED)	tumour outcome (control, treated, inhibition, significance) (Carcinogen: N-METHYL-N-NITROSOUREA, 684-93-5, Dose [Inhibitor]: 0, 25 PPM IN DRINKING WATER FOR 36 WK BEGINNING POST CARCINOGEN TREATMENT (STUDY DURATION: 40 WK), Species: RAT, Strain/Sex: F344/FEMALE, Target Tissue: Type of Lesion: COLON: ADENOCARCINOMA, Dose [Carcinogen]: 2 MG 3/WK FOR 3 WK, Promoter: NONE USED)	tumour outcome (control, treated, inhibition, significance) (Carcinogen: N-METHYL-N-NITROSOUREA, 684-93-5, Dose [Inhibitor]: 0, 200 PPM IN DRINKING WATER FOR 40 WK BEGINNING CONCURRENTLY WITH CARCINOGEN TREATMENT (STUDY DURATION: 40 WK), Species: RAT, Strain/Sex: F344/FEMALE, Target Tissue: Type of Lesion: COLON: ADENOCARCINOMA, Dose [Carcinogen]: 2 MG 3/WK FOR 2 WK, Promoter: NONE USED)
O=C1OC(c2ccc(O)cc2)Cc2cccc(O)c21 (stereo not given)	6/28 (21%), 2/29 (7%), 67%, not significant	8/28 (29%), 10/29 (34%), -17%, not significant	7/28 (25%), 4/29 (14%), 44%, not significant	–	–	–	–	–	–	–
CC[C@H](C)C(=O)O[C@H]1C[C@H](O)C=C2C=C[C@H](C)[C@H](CC[C@@H](O)C[C@@H](O)CC(=O)O)[C@H]21	–	–	–	21/34 (62%), 14/30 (47%), 24%, not significant	21/34 (62%), 13/30 (43%), 31%, not significant	6/15 (40%), 2/15 (13%), 68%, not significant	24/30 (80%), 23/30 (77%), 4%, not significant	24/30 (80%), 14/29 (48%), 40%, p<0.05	24/30 (80%), 15/30 (50%), 38%, p<0.05	11/16 (69%), 10/16 (63%), 9%, not significant
